# From patent publication US20130130223A1, “NOVEL CONDITIONALLY IMMORTALIZED HUMAN PROXIMAL TUBULE CELL LINE EXPRESSING FUNCTIONAL INFLUX AND EFFLUX TRANSPORTERS” (priority 2009, published 2013)
# T1: OCT2/SLC22A2 (Homo sapiens, UniProt O15244)
# T1 construct: investigated in ciPTEC-14.4 by measuring the activity and expression of the solute carrier tansporter (SLC) OCT2/SLC22A2; endogenous in cells; host or cells: ciPTEC-14.4 grown on Transwell filters
# T1 sequence (O15244 1-555): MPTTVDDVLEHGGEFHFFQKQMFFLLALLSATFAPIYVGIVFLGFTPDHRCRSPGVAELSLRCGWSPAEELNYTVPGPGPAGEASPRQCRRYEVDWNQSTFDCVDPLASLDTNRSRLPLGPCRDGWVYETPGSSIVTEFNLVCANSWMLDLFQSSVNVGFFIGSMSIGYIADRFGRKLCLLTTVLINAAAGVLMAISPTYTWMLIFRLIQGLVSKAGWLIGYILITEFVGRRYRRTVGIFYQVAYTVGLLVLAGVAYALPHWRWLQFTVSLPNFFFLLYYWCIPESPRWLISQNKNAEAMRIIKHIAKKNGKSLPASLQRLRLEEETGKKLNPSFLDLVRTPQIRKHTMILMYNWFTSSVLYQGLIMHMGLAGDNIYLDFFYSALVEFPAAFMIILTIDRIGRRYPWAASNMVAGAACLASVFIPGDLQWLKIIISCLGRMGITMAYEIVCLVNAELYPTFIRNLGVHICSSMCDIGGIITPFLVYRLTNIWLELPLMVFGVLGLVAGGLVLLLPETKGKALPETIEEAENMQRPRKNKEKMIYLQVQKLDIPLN
# Experiments:
# OK cells = conditions: reference [12]; cited from earlier work
# ciPTEC-14.4 = test: Albumin uptake by endocytosis (BSA-FITC uptake); format: cell-based, human
# Experimental: The ability of ciPTEC-14.4 to reabsorb albumin was investigated by the incubation of confluent monolayers in 24 well plates with 50 μg/ml BSA-FITC (Sigma-Aldrich) for 30 min at 37° C. unless described otherwise. Uptake was arrested using ice-cold PBS and cells were detached using trypsin, fixed by paraformaldehyde (0.5%) in PBS and analyzed using flow cytometry or immuno-fluorescence microscopy. Concentration- and temperature-dependent uptake, was investigated using a concentration range BSA-FITC (0; 3.7; 11; 33; 100; 300 μg/ml) at 37° C. and on ice for 30 min. Uptake inhibition was studied in three independent experiments by incubating the cells with BSA-FITC (50 μg/ml) in addition of excess unlabelled BSA (10 mg/ml) or recombinant RAP (1 μM), which was a kind gift of Dr. M. Nielsen (University of Aarhus, Denmark). Uptake inhibition by RAP was further examined using a dilution range of RAP. BSA uptake in saturation experiments are plotted as mean fluorescence intensity and in inhibition experiments as mean (+/−SE) percentage uptake compared to control condition.
# (§1) Michaelis-Menten curve fitting for calculation of Km and Vmax values was performed by non-linear regression analysis using GraphPad Prism 4.03 software. Differences in substrate transport in presence or absence of inhibitors or unlabelled analogues were assessed by a paired t-test.
# OCT2/SLC22A2 = target: T1, OCT2/SLC22A2; test: OCT2/SLC22A2 activity (basolateral ASP uptake); format: cell-based
# Experimental: Transport of xenobiotics across the basolateral membrane was investigated in ciPTEC-14.4 by measuring the activity and expression of the solute carrier tansporter (SLC) OCT2/SLC22A2 using a method adapted from Brown et al. Cells were grown on Transwell®-Clear polyester membranes as described before. Activity of OCT2 was measured by incubating 1 μM fluorescent OCT2 substrate 4-(4-(dimethylamino)styryl)-N-methylpyridinium iodide (ASP, Invitrogen) in Hepes-Tris buffer for 1 min at 37° C. at the basal compartment. To inhibit OCT2 mediated uptake, cells were exposed to 100 μM tetrapentylammonium (TPA) at both apical and basal compartments for 10 min prior to uptake of ASP. Additionally, one set of experiments was performed at 4° C. After incubation, transport was arrested using 1 mM ice-cold TPA. Cells were homogenized using 250 μl Hepes-Tris-Triton (0.1%) buffer for 30 min, followed by analyzing fluorescence intensity (excitation 450 nm, emission 642 nm) using Victor3 Multiplate Reader (Perkin Elmer Inc.). Data are expressed as mean+i-SE.
# [1] = tested on: sodium-dependent transporters NaPi-IIa (SLC34A1) and NaPi-IIc (SLC34A3); test: Sodium-dependent phosphate uptake (32PO4); format: cell-based, human
# Experimental: Phosphate uptake was performed in confluent monolayers using 32PO4 (Perkin Elmer, Waltham Mass., USA) as described earlier. Cells cultured for 10 days at 37° C. were incubated with 0.2 mM KH2PO4 (10 μCi/ml) for 5 min in four independent experiments, in the presence of 137 mM sodium or 137 mM NMDG to study sodium-dependent transport. Additionally, time- (0.5; 1; 2; 5; 10; 15; 30 or 60 min) and concentration-dependent (0.02; 0.07; 0.22; 0.66 or 2 mM PO4) uptake was studied. Data are expressed as mean+/−SE.
# as §1
# [2] = tested on: opossum kidney (OK) cells; conditions: reference [20], read-out: Km of apical phosphate transport; cited from earlier work
molecule,measurement,setting,value
albumin,apparent Km of albumin uptake,OK cells,20 µg/mL
unlabelled FITC: excess unlabelled bovine serum albumin used as competitor of BSA-FITC uptake,inhibition of BSA-FITC uptake,"ciPTEC-14.4; 200-fold excess unlabelled (10 mg/ml), BSA-FITC 50 μg/ml, p<0.01",54%
"CCCCC[N+](CCCCC)(CCCCC)CCCCC [TPA, tetrapentylammonium]","inhibition at 1 min, 100 μM","OCT2/SLC22A2; 100 μM TPA, 1 μM ASP, 1 min 37° C., basal compartment, p<0.05, read-out: inhibition of ASP transport",36%
"O=P([O-])(O)O.[K+] [phosphate, KH2PO4]",decrease of phosphate uptake in the absence of sodium,"[1]; 0.2 mM Pi, 5 min, NMDG as sodium replacement, p<0.001",approximately 86%
same,Km,"[1]; ciPTEC-14.4, read-out: apparent Km of sodium-dependent phosphate uptake",120 µM
same,Km,[2],370 µM
"CN(C)c1ccc(/C=C/c2cc[n+](C)cc2)cc1 [ASP, 4-(4-(dimethyl-amino)styryl)-N-methylpyridinium iodide]","inhibition at 1 min, 1 μM",OCT2/SLC22A2,30%
BSA-FITC: FITC labelled bovine serum albumin,apparent Km of BSA-FITC uptake,"ciPTEC-14.4; ciPTEC-14.4, passage 20-25, 30 min, 37° C.",126 µg/mL
"RAP: recombinant receptor associated protein, known inhibitor of albumin endocytosis by binding to multi-ligand receptor megalin (protein, UniProt P30533 35-357, looked up) Alpha-2-macroglobulin …: YSREKNQPKPSPKRESGEEFRMEKLNQLWEKAQRLHLPPVRLAELHADLKIQERDELAWKKLKLDGLDEDGEKEARLIRNLNVILAKYGLDGKKDARQVTSNSLSGTQEDGLDDPRLEKLWHKAKTSGKFSGEELDKLWREFLHHKEKVHEYNVLLETLSRTEEIHENVISPSDLSDIKGSVLHSRHTELKEKLRSINQGLDRLRRVSHQGYSTEAEFEEPRVIDLWDLAQSANLTDKELEAFREELKHFEAKIEKHNHYQKQLEIAHEKLRHAESVGDGERVSRSREKHALLEGRTKELGYTVKKHLQDLSGRISRARHNEL",inhibition of BSA-FITC uptake,"ciPTEC-14.4; 1 μM RAP, BSA-FITC 50 μg/ml, 30 min 37° C., p<0.05",41%
same,"inhibition of BSA-FITC uptake, dilution range of RAP",ciPTEC-14.4; BSA-FITC 50 μg/ml,inhibited the uptake of BSA-FITC in a concentration-dependent manner
